Test results taken from US6153589A, “2,3-epoxy alcohols, acids and derivatives as anti retroviral chemotherapeutic agents” (The United States of America as represented by the …, priority 1992, dated 2000).
Where two headings read alike, the source gives them in different places.

Columns and labels:
HIV-2 protease = test: HIV protease cleavage of nonapeptide (HPLC); type: biochemical; settings: 0.5 μl of 10 μg/μl inhibitor in DMSO per 10 μl reaction; pH 6.5, room temperature; pentapeptide product relative to DMSO control; sampled at ca. 16 and 40 hr (time not given)
In short: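 Nonapeptide substrate Val-Ser-Gln-Asn-Tyr-Pro-Ile-Val-Gln-NH2 incubated with protease (ca. 100 ng) in 200 mM sodium phosphate, 1 M NaCl, 5% glycerol, 0.25% NP-40, pH 6.5, at room temperature with inhibitor added from a 10 μg/μl DMSO stock. Samples taken at ca. 16 and 40 h; RP-HPLC (206 nm) measured pentapeptide product relative to DMSO control.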

porcine Renin = target: T1, porcine Renin (Sus scrofa, UniProt A0A287APG1); test: Porcine Renin cleavage of porcine tetradecapeptide (HPLC); type: biochemical; settings: 0.5 μl of 50 μg/μl inhibitor in DMSO in 50 μl; pH 6.00, room temperature, 70 min; relative to uninhibited control
T1 construct: purchased Sigma
Description: Renin Activity: Porcine Renin Cleavage of Porcine Tetradecapeptide
Proteolytic enzymes are ubiquitous in many living systems. Renin is an asparxyl protease found in mammals which is responsible for the regulation of blood pressure. Structural and functional similarities between Renin and retroviral proteases have been previously noted (Pearl, L. H., Taylor, W. R., (1987) Nature, 329, 351-354). Consequently, successful therapeutic inhibition of retroviral proteases depends on the ability of the inhibitor to inhibit the retroviral enzyme while having a greatly diminished effect on normally occurring enzymes like Renin. The failure to inhibit the desired enzyme selectively may have an adverse effect on normal biochemical functions. The similarity of Renin to retroviral proteases and its viral normal bodily function makes it an attractive system in which to examine inhibitory selectivity.
Renin activity was determined by a method similar to that described above for the HIV protease. A solution containing 0.37 m unit (0.5 μl of stock solution containing 0.75 m unit/μl) of porcine Renin (Sigma) was added to 5 μg of porcine angiotensinogen in 50 μl of 0.1 M citrate-phosphate buffer (pH 6.00) containing 0.25% NP-40. A DMSO solution containing the inhibitor (0.5 μl of a 50 μg/μl solution) was added and the reaction was allowed to incubate at room temperature for 70 min. The entire mixture was analyzed by HPLC chromatographic analysis was perforemd on a 4.6×250 mm Lichrosorb RP-18 column eluting with a gradient of 0-50% acetonitrile in 0.02 M KH2 Po4 (pH 4.7) over 30 min monitoring absorbance at 206 nm. Appearance of both the tetrapeptide and the decapeptide products may be monitored under these conditions. Enzyme activity is expressed as the amount of tetrapeptide produced relative to an uninhibited control, and are summarized in Table 3 below.

Rous Sarcoma Virus = settings: in vitro; literature report; cited from earlier work
Murine Leukemia Virus = settings: in vitro; literature report; cited from earlier work
HIV infected cells = settings: literature report; cited from earlier work
fatty acid synthesis = settings: literature report; cited from earlier work
[1] = literature report; cited from earlier work
HIV1 IIIb = test: microbe, parasite or virus in culture; type: cell-based; settings: Human immunodeficiency virus 1, IIIB; for viability at 10 µg/mL: 10 ug/ml; for viability at 80.2 µg/mL: 80.2 ug/ml; for viability at 23.8 µg/mL: 23.8 ug/ml; for viability at 14 µg/mL: 14 ug/ml; for viability at 140 µg/mL: 140 ug/ml; for viability at 38 µg/mL: 38 ug/ml; for viability at 35.2 µg/mL: 35.2 ug/ml; for viability at 20.7 µg/mL: 20.7 ug/ml; for viability at 3.52 µg/mL: 3.52 ug/ml
In short: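 Human host cells infected with HIV1 IIIb (virus-producing H9 cells or cell-free virus) and incubated seven days with compound. Viable cells measured by XTT formazan absorbance; response expressed as % of uninfected controls against virus kill %. Some cultures redosed after 3 days.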

T1 sequence (A0A287APG1 24-407): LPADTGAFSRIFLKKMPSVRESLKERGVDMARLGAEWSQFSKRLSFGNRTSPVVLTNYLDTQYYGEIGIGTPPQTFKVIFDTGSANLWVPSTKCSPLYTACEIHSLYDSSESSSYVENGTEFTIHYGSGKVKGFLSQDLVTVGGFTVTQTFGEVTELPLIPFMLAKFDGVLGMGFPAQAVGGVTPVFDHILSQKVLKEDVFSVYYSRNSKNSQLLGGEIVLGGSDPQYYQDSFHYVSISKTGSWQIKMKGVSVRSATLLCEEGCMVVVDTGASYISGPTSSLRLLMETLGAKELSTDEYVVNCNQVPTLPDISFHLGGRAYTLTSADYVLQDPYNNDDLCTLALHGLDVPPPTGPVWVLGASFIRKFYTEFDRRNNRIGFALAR

C/C=C/C/C=C/CCC(=O)[C@H]1O[C@H]1C(N)=O [Cerulenin, 4-Oxo-2R,3S-epoxy-trans,trans-2,5-dodecadienyl amide]
Percent Control Cleavage of Nonapeptide HIV-1 Cleavage Site Fragment (HIV-2 protease): 10%
Percent control (tetrapeptide produced) (porcine Renin): 68%
antiretroviral activity against Rous Sarcoma Virus (Rous Sarcoma Virus): exhibit antiretroviral activity
antiretroviral activity against Murine Leukemia Virus (Murine Leukemia Virus): exhibit antiretroviral activity
inhibition of viral polyprotein processing (HIV infected cells): inhibit viral polyprotein processing
inhibition of fatty acid synthesis (fatty acid synthesis): potent inhibitor of fatty acid synthesis
toxicity [1]: relatively high toxicity

CCCCCCC[C@H]1O[C@H]1CO [Example 15, (2S-cis)-3-Heptyloxirane Methanol]
viability at 92 µg/mL (HIV1 IIIb; 168 h, read-out: Antiviral Effect (viable cells as % of uninfected controls), run 3, 92 ug/ml, source V (cell free virus), virus kill 35.0%): 60.8%
viability at 10 µg/mL (HIV1 IIIb; 168 h, read-out: Antiviral Effect (viable cells as % of uninfected controls), run 4, source V (cell free virus), virus kill 57.0%): 78.2%
viability at 10 µg/mL (HIV1 IIIb; 168 h, read-out: Antiviral Effect (viable cells as % of uninfected controls), run 5, source V (cell free virus), virus kill 26.0%): 58.6%
viability at 21.6 µg/mL (HIV1 IIIb; 168 h, read-out: Antiviral Effect (viable cells as % of uninfected controls), run 6*, 21.6 ug/ml, source V (cell free virus), virus kill 31.0%, culture redosed with compound after 3 days): 32%
viability at 46 µg/mL (HIV1 IIIb; H9, 168 h, read-out: Antiviral Effect (viable cells as % of uninfected controls), run 1, 46 ug/ml, source C (virus producing H9 cells), virus kill 15.0%): 58.3%
viability at 4.6 µg/mL (HIV1 IIIb; H9, 168 h, read-out: Antiviral Effect (viable cells as % of uninfected controls), run 2, 4.6 ug/ml, source C (virus producing H9 cells), virus kill 13.0%): 11.8%
Percent Control Cleavage of Nonapeptide HIV-1 Cleavage Site Fragment (HIV-2 protease): 59%
Percent control (tetrapeptide produced) (porcine Renin): 86%

CCCCCCC[C@@H]1O[C@@H]1CO [Example 16, (2R-cis)-3-Heptyloxirane Methanol]
viability at 160 µg/mL (HIV1 IIIb; 168 h, read-out: Antiviral Effect (viable cells as % of uninfected controls), run 4, 160 ug/ml, source V (cell free virus), virus kill 40.0%): 62.6%
viability at 80.2 µg/mL (HIV1 IIIb; 168 h, read-out: Antiviral Effect (viable cells as % of uninfected controls), run 5, source V (cell free virus), virus kill 60.0%): 97.3%
viability at 80.2 µg/mL (HIV1 IIIb; 168 h, read-out: Antiviral Effect (viable cells as % of uninfected controls), run 6, source V (cell free virus), virus kill 30.0%): 88.6%
viability at 23.8 µg/mL (HIV1 IIIb; 168 h, read-out: Antiviral Effect (viable cells as % of uninfected controls), run 7, source V (cell free virus), virus kill 22.0%): 35.9%
viability at 23.8 µg/mL (HIV1 IIIb; 168 h, read-out: Antiviral Effect (viable cells as % of uninfected controls), run 8*, source V (cell free virus), virus kill 28.0%, culture redosed with compound after 3 days): 39.7%
viability at 10.6 µg/mL (HIV1 IIIb; H9, 168 h, read-out: Antiviral Effect (viable cells as % of uninfected controls), run 1, 10.6 ug/ml, source C (virus producing H9 cells), virus kill 14.0%): 27.3%
viability at 80.2 µg/mL (HIV1 IIIb; H9, 168 h, read-out: Antiviral Effect (viable cells as % of uninfected controls), run 2, source C (virus producing H9 cells), virus kill 15.0%): 69.6%
viability at 80.2 µg/mL (HIV1 IIIb; H9, 168 h, read-out: Antiviral Effect (viable cells as % of uninfected controls), run 3, source C (virus producing H9 cells), virus kill 15.0%): 84.5%
Percent Control Cleavage of Nonapeptide HIV-1 Cleavage Site Fragment (HIV-2 protease): 42%
Percent control (tetrapeptide produced) (porcine Renin): 96%

CCCCCCCCC[C@H]1O[C@H]1C(N)=O [Example 23, (2R-cis)-3-Nonyloxiranecarboxy Amide]
viability at 2.8 µg/mL (HIV1 IIIb; 168 h, read-out: Antiviral Effect (viable cells as % of uninfected controls), run 7, 2.8 ug/ml, source V (cell free virus), virus kill 19.0%): 108%
viability at 7.6 µg/mL (HIV1 IIIb; 168 h, read-out: Antiviral Effect (viable cells as % of uninfected controls), run 8, 7.6 ug/ml, source V (cell free virus), virus kill 30.0%): 40.2%
viability at 3.8 µg/mL (HIV1 IIIb; 168 h, read-out: Antiviral Effect (viable cells as % of uninfected controls), run 9, 3.8 ug/ml, source V (cell free virus), virus kill 52.0%): 60.1%
viability at 14 µg/mL (HIV1 IIIb; 168 h, read-out: Antiviral Effect (viable cells as % of uninfected controls), run 10, source V (cell free virus), virus kill 52.0%): 60.1%
viability at 380 µg/mL (HIV1 IIIb; 168 h, read-out: Antiviral Effect (viable cells as % of uninfected controls), run 11, 380 ug/ml, source V (cell free virus), virus kill 20.0%): 24%
viability at 140 µg/mL (HIV1 IIIb; 168 h, read-out: Antiviral Effect (viable cells as % of uninfected controls), run 12, source V (cell free virus), virus kill 20.0%): 31%
viability at 27 µg/mL (HIV1 IIIb; 168 h, read-out: Antiviral Effect (viable cells as % of uninfected controls), run 13*, 27 ug/ml, source V (cell free virus), virus kill 22.0%, culture redosed with compound after 3 days): 79.6%
viability at 28 µg/mL (HIV1 IIIb; H9, 168 h, read-out: Antiviral Effect (viable cells as % of uninfected controls), run 1, 28 ug/ml, source C (virus producing H9 cells), virus kill 6.0%): 75.6%
viability at 76 µg/mL (HIV1 IIIb; H9, 168 h, read-out: Antiviral Effect (viable cells as % of uninfected controls), run 2, 76 ug/ml, source C (virus producing H9 cells), virus kill 17.0%): 28.5%
viability at 38 µg/mL (HIV1 IIIb; H9, 168 h, read-out: Antiviral Effect (viable cells as % of uninfected controls), run 3, source C (virus producing H9 cells), virus kill 14.0%): 35.1%
viability at 140 µg/mL (HIV1 IIIb; H9, 168 h, read-out: Antiviral Effect (viable cells as % of uninfected controls), run 4, source C (virus producing H9 cells), virus kill 14.0%): 25.1%
viability at 38 µg/mL (HIV1 IIIb; H9, 168 h, read-out: Antiviral Effect (viable cells as % of uninfected controls), run 5, source C (virus producing H9 cells), virus kill 17.0%): 17%
viability at 14 µg/mL (HIV1 IIIb; H9, 168 h, read-out: Antiviral Effect (viable cells as % of uninfected controls), run 6, source C (virus producing H9 cells), virus kill 17.0%): 16%
Percent Control Cleavage of Nonapeptide HIV-1 Cleavage Site Fragment (HIV-2 protease): 102%
Percent control (tetrapeptide produced) (porcine Renin): 88%

CCCCCCCCC[C@@H]1O[C@@H]1C(N)=O [Example 24, (2S-cis)-3-Nonyloxiranecarboxy Amide]
viability at 35.2 µg/mL (HIV1 IIIb; 168 h, read-out: Antiviral Effect (viable cells as % of uninfected controls), run 5, source V (cell free virus), virus kill 54.6%): 73%
viability at 20.7 µg/mL (HIV1 IIIb; 168 h, read-out: Antiviral Effect (viable cells as % of uninfected controls), run 6, source V (cell free virus), virus kill 54.6%): 71.4%
viability at 3.52 µg/mL (HIV1 IIIb; 168 h, read-out: Antiviral Effect (viable cells as % of uninfected controls), run 7, source V (cell free virus), virus kill 26.0%): 28.1%
viability at 20.7 µg/mL (HIV1 IIIb; 168 h, read-out: Antiviral Effect (viable cells as % of uninfected controls), run 8, source V (cell free virus), virus kill 26.0%): 34%
viability at 1.34 µg/mL (HIV1 IIIb; 168 h, read-out: Antiviral Effect (viable cells as % of uninfected controls), run 9, 1.34 ug/ml, source V (cell free virus), virus kill 20.0%): 41.7%
viability at 0.135 µg/mL (HIV1 IIIb; 168 h, read-out: Antiviral Effect (viable cells as % of uninfected controls), run 10*, 0.135 ug/ml, source V (cell free virus), virus kill 23.0%, culture redosed with compound after 3 days): 114%
viability at 35.2 µg/mL (HIV1 IIIb; H9, 168 h, read-out: Antiviral Effect (viable cells as % of uninfected controls), run 1, source C (virus producing H9 cells), virus kill 16.0%): 73%
viability at 20.7 µg/mL (HIV1 IIIb; H9, 168 h, read-out: Antiviral Effect (viable cells as % of uninfected controls), run 2, source C (virus producing H9 cells), virus kill 16.0%): 67.4%
viability at 3.52 µg/mL (HIV1 IIIb; H9, 168 h, read-out: Antiviral Effect (viable cells as % of uninfected controls), run 3, source C (virus producing H9 cells), virus kill 9.0%): 11.3%
viability at 2.07 µg/mL (HIV1 IIIb; H9, 168 h, read-out: Antiviral Effect (viable cells as % of uninfected controls), run 4, 2.07 ug/ml, source C (virus producing H9 cells), virus kill 9.0%): 10.5%
Percent Control Cleavage of Nonapeptide HIV-1 Cleavage Site Fragment (HIV-2 protease): 113%
Percent control (tetrapeptide produced) (porcine Renin): 106%
